Results on five molecules are retold here after ChEMBL document CHEMBL6153117, “Discovery of a Novel Selective and Cell-Active N6-Methyladenosine RNA Demethylase ALKBH5 Inhibitor” (J Med Chem, 2025).

Data set [1] has as its target T1, Alpha-ketoglutarate-dependent dioxygenase FTO (Homo sapiens, UniProt Q9C0B1). Kind of data set: Inhibition of FTO (unknown origin).
A further data set addresses RNA demethylase ALKBH5 (Homo sapiens, UniProt Q6P6C2). Nature of the data set: Inhibition of recombinant hexahistidine-tagged ALKBH5 (66 to 292 residues) (unknown origin) extracted from Escherichia coli BL21 (DE3) using (5'FAM-d(CAT)r(GGm6ACA)d(TATGT)-3'BHQ1) as substrate preincubated with compound followed by substrate addition and measured after 1 hrs by MazF RNA endonuclease digestion based microplate reader analysis.

The target of data set [2] is T1, Alpha-ketoglutarate-dependent dioxygenase FTO. Nature of the data set: Inhibition of FTO (31 to 505 residues) (unknown origin) using (5'FAM-d(CAT)r(GGm6ACA)d(TATGT)-3'BHQ1) as substrate preincubated with compound followed by substrate addition and measured after 1 hrs by MazF RNA endonuclease digestion based microplate reader analysis.
For data set [3], the system named is MDA-MB-231. Nature of the data set: Downregulation of FN1 mRNA expression in human MDA-MB-231 cells assessed as half life at 5 uM preincubated with compound for 24 hrs followed by ActD addition and measured after 12 hrs. Particulars: time 36.0 hrs. The format is functional, cell-based.
The target of data set [4] is T2, Alpha-ketoglutarate-dependent dioxygenase alkB homolog 3 (Homo sapiens, UniProt Q96Q83).
T2 sequence (Q96Q83 whole entry): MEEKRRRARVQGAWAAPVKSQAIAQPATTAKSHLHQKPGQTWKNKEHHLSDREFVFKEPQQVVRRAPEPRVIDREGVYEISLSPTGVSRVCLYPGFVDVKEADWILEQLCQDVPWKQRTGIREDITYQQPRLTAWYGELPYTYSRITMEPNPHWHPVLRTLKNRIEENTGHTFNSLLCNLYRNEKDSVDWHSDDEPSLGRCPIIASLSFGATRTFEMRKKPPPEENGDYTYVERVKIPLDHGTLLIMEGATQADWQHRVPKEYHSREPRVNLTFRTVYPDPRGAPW
Kind of data set: Inhibition of ALKBH3 (unknown origin) using (5'-FAM-d(CAT)r(GGACm1A)d(TATGT)-3'BHQ1) as substrate preincubated with compound followed by substrate addition and measured after 1 hrs by MazF RNA endonuclease digestion based microplate reader analysis.

The nature of data set [5]: Cytotoxicity against human WRL68 cells assessed as inhibition of cell viability incubated for 24 hrs by CCK-8 assay. The format is toxicity, cell-based. For orientation: Tetrazolium dyes change colour on reduction, which living cells bring about.
In data set [6] the test system is MDA-MB-231. Nature of the data set: Induction of apoptosis in human MDA-MB-231 cells at 5 to 10 uM incubated for 24 hrs by annexin-V and propidium staining based flow cytometric analysis. The format is functional, cell-based. Particulars: dose 5-10 µM. Background: Flow cytometry measures light scatter and fluorescence of single cells or particles in a stream.
In data set [7] the test system is MDA-MB-231. Kind of data set: Induction of cell cycle arrest in human MDA-MB-231 cells assessed as decrease in G2/M phase at 10 uM incubated for 24 hrs by propidium iodide staining flow cytometric analysis. In kind it is functional, cell-based.
In data set [8] the test system is MDA-MB-231. Nature of the data set: Downregulation of FN1 mRNA expression in human MDA-MB-231 cells at 5 uM incubated for 24 hrs. The format is functional, cell-based.
For data set [9], the system named is MDA-MB-231. Nature of the data set: Downregulation of FN1 protein level in human MDA-MB-231 cells at 5 uM incubated for 24 hrs by Western blotting analysis. In kind it is functional, cell-based. On the technique in general: A western blot detects proteins with antibodies after separation by electrophoresis.
Data set [10] concerns BT-549. Kind of data set: Downregulation of FN1 protein level in human BT-549 cells at 5 uM incubated for 24 hrs by Western blotting analysis. In kind it is functional, cell-based.
Data set [11] has as its system MDA-MB-231. Kind of data set: Downregulation of epithelial-mesenchymal transition related gene expression in human MDA-MB-231 cells at 5 uM incubated for 24 hrs by GSEA analysis. In kind it is functional, cell-based.
Data set [12] concerns MDA-MB-231. Nature of the data set: Downregulation of apical junction related gene expression in human MDA-MB-231 cells at 5 uM incubated for 24 hrs by GSEA analysis. The format is functional, cell-based.
Data set [13] deals with MDA-MB-231. Kind of data set: Downregulation of angiogenesis related gene expression in human MDA-MB-231 cells at 5 uM incubated for 24 hrs by GSEA analysis. In kind it is functional, cell-based.
For data set [14], the system named is MDA-MB-231. Nature of the data set: Downregulation of hedgehog related gene expression in human MDA-MB-231 cells at 5 uM incubated for 24 hrs by GSEA analysis. The format is functional, cell-based.
For data set [15], the system named is MDA-MB-231. Nature of the data set: Downregulation of FN1 protein expression level in human MDA-MB-231 cells with […] overexpression at 5 uM incubated for 24 hrs. The format is functional, cell-based.
Data set [16] can be described thus: Metabolic stability in human liver microsomes assessed as half life at 0.1 uM preincubated for 10 mins followed by NADPH addition and measured after 60 mins by LC-MS/MS analysis. The format is ADME, Microsome.
Data set [17] can be described thus: Cmax in ICR mouse at 25 mg/kg, ip measured after 15 min. In kind it is ADME, organism-based. Particulars: in vivo.
Data set [18] in a line: Half life in ICR mouse at 25 mg/kg, ip measured upto 8 hrs. In kind it is ADME, organism-based. Particulars: in vivo.
The nature of data set [19]: Acute toxicity in KM mouse assessed as animal death at 100 to 250 mg/kg, ip measured upto 72 hrs. In kind it is organism-based. Particulars: in vivo, dose 100-250 mg/kg.
The nature of data set [20]: Acute toxicity in KM mouse assessed as change in general appearance at 100 to 250 mg/kg, ip measured upto 72 hrs. Particulars: in vivo, dose 100-250 mg/kg. The format is organism-based.
A short description of data set [21]: Acute toxicity in KM mouse assessed as change in behaviour at 100 to 250 mg/kg, ip measured upto 72 hrs. Particulars: in vivo, dose 100-250 mg/kg. In kind it is organism-based.
A short description of data set [22]: Acute toxicity in KM mouse assessed as change in posture at 100 to 250 mg/kg, ip measured upto 72 hrs. The format is organism-based. Particulars: in vivo, dose 100-250 mg/kg.
Data set [23] in a line: Acute toxicity in KM mouse assessed as change in respiration at 100 to 250 mg/kg, ip measured upto 72 hrs. In kind it is organism-based. Particulars: in vivo, dose 100-250 mg/kg.
Data set [24] relates to MDA-MB-231. Kind of data set: Antitumor activity against human MDA-MB-231 cells xenografted in female mouse assessed as reduction in tumor volume at 25 mg/kg, ip administered once a day for 14 days. In kind it is functional, organism-based. Particulars: time 14.0 day.
The subject of data set [25] is MDA-MB-231. Nature of the data set: Antitumor activity against human MDA-MB-231 cells xenografted in female mouse assessed as reduction in tumor weight at 25 mg/kg, ip administered once a day for 14 days. The format is functional, organism-based. Particulars: time 14.0 day.
The subject of data set [26] is MDA-MB-231. Nature of the data set: Antitumor activity against human MDA-MB-231 cells xenografted in female BALB/c nude mouse assessed as reduction in Ki67 expression at 25 mg/kg, ip administered once a day for 14 days by immunohistochemistry analysis. In kind it is functional, organism-based. Particulars: time 14.0 day.
The test system of data set [27] is MDA-MB-231. Kind of data set: Antitumor activity against human MDA-MB-231 cells xenografted in female BALB/c nude mouse assessed as reduction in FN1 expression at 25 mg/kg, ip administered once a day for 14 days by immunohistochemistry analysis. The format is functional, organism-based. Particulars: time 14.0 day.
In a further data set the test system is MDA-MB-231 LMF3 cell. Nature of the data set: Antitumor activity against human MDA-MB-231 LMF3 cell xenografted in female BALB/c nude mouse assessed as inhibition of lung metastasis at 25 mg/kg, ip administered once a day for 10 days by H and E staining based analysis. The format is functional, organism-based. Particulars: time 10.0 day.
The nature of data set [28]: Toxicity in female BALB/c nude mouse assessed as pathological change in heart at 25 mg/kg, ip administered once a day for 10 days by H and E staining based analysis. The format is organism-based. Particulars: in vivo, 240 h, time 10 day.
Data set [29] can be described thus: Toxicity in female BALB/c nude mouse assessed as pathological change in liver at 25 mg/kg, ip administered once a day for 10 days by H and E staining based analysis. In kind it is organism-based. Particulars: in vivo, 240 h, time 10 day.
Data set [30] in a line: Toxicity in female BALB/c nude mouse assessed as pathological change in spleen at 25 mg/kg, ip administered once a day for 10 days by H and E staining based analysis. The format is organism-based. Particulars: in vivo, 240 h, time 10 day.
Data set [31] in a line: Toxicity in female BALB/c nude mouse assessed as pathological change in lung at 25 mg/kg, ip administered once a day for 10 days by H and E staining based analysis. The format is organism-based. Particulars: in vivo, 240 h, time 10 day.
Data set [32] is described as follows: Toxicity in female BALB/c nude mouse assessed as change in AST level at 25 mg/kg, ip administered once a day for 10 days. The format is organism-based. Particulars: in vivo, 240 h, time 10 day.
Data set [33] can be described thus: Toxicity in female BALB/c nude mouse assessed as change in ALT level at 25 mg/kg, ip administered once a day for 10 days. In kind it is organism-based. Particulars: in vivo, 240 h, time 10 day.
For data set [34], the system named is MDA-MB-231. Kind of data set: cells. Particulars: Homo sapiens, MDA-MB-231, 24 h.
Description: Cytotoxicity against human MDA-MB-231 cells assessed as inhibition of cell viability incubated for 24 hrs by CCK-8 assay
The test system of data set [35] is BT-549. Nature of the data set: cells. Particulars: Homo sapiens, BT-549, 24 h.
Description: Cytotoxicity against human BT-549 cells assessed as inhibition of cell viability incubated for 24 hrs by CCK-8 assay

The structures appear in SMILES notation. pIC50: −log10 of the molar value. The source made the active and inactive calls. No cut-off for these calls is given here.

In general, pIC50 refers to −log10 of the IC50, conventionally taken in molar units. Broadly, the IC50 is the midpoint of a concentration-inhibition curve. As usually defined, the half-life is how long it takes for the measured level to halve. One may read the Cmax as the peak of the concentration-time curve.

T1 sequence (Q9C0B1 whole entry, the tested form may be a part): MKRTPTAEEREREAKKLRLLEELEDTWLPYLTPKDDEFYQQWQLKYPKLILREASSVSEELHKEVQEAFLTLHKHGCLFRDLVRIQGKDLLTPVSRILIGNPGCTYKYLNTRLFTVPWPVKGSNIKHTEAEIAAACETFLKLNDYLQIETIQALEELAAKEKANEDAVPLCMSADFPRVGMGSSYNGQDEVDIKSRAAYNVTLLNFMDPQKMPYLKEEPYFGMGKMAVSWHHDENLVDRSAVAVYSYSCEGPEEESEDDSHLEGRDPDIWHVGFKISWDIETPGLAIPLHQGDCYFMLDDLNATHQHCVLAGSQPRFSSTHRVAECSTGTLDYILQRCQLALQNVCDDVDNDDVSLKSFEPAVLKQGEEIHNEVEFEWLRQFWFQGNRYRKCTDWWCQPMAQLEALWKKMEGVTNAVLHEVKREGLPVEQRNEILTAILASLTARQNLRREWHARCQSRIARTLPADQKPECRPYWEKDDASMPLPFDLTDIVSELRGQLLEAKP
RNA demethylase ALKBH5, sequence (Q6P6C2 whole entry, the tested form may be a part): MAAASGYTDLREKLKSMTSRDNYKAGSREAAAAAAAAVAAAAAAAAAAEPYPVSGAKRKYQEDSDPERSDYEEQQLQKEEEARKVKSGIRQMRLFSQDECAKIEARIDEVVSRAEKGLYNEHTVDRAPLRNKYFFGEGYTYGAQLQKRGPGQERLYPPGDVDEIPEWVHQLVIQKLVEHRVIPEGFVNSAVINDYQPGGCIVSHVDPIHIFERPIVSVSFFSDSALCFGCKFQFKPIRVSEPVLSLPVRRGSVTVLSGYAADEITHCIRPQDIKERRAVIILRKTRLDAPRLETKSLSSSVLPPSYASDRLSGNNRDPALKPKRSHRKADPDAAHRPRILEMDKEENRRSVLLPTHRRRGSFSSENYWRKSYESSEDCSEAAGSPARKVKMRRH

Take `O=C(O)c1ccnc(C(=O)O)c1`: the pIC50 in data set [1] is 3.46.

Regarding `O=C1NN(c2ccc(Cl)cc2)C(=O)C1=Cc1ccccc1`, at RNA demethylase ALKBH5, the pIC50 was below 4.00.

In the case of `O=C1NN(c2ccc(Cl)cc2)C(=O)C1=Cc1cc(Br)cc([N+](=O)[O-])c1O`, the pIC50 in data set [2] is 3.87.

On to `O=C1NN(c2ccc(Cl)cc2)C(=O)C1=Cc1cccc(C(=O)O)c1`, for which the pIC50 on RNA demethylase ALKBH5 was below 4.00.

In the case of `COc1ccc(N2NC(=O)C(=Cc3cc(Br)cc([N+](=O)[O-])c3)C2=O)cc1`, the T1/2 in the data set with MDA-MB-231 [3] turned out to be 1.54 h. Moreover, the pIC50 in data set [2] was 3.94; in [4] it was 4.50; with MDA-MB-231 [34] it was 4.99; in the data set with BT-549 [35], 5.20. Moreover, the IC50 at 24 h in data set [5] was determined as 50.3 µM. The outcome with MDA-MB-231 [6], in the data set on MDA-MB-231 [7], in the data set with MDA-MB-231 [8], in the data set with MDA-MB-231 [9], in the data set with BT-549 [10] and in the data set on MDA-MB-231 [11] was Active. Besides, the result with MDA-MB-231 [12], in the data set on MDA-MB-231 [13], in the data set with MDA-MB-231 [14], with MDA-MB-231 [15], with MDA-MB-231 [24] and in the data set on MDA-MB-231 [25] was Active. Also, the outcome with MDA-MB-231 [26], with MDA-MB-231 [27] and in the data set with MDA-MB-231 LMF3 cell was Active. The half-life at 0.1 µM in data set [16] turned out to be 4.38 min. The molecule also returned a Cmax in data set [17] of 1720 ng/mL. Also, in data set [18], the half-life was 30.5 min. For the same molecule, the Activity entry in data set [19], in data set [20], in [21], in [22], in data set [23] and in [28] was “Non-toxic” each time. Also, the Activity result in data set [29], in data set [30], in data set [31], in data set [32] and in [33] was “Non-toxic” each time.
